Test results as given in patent US4559323A, “A41030 Antibiotics” (Eli Lilly and Company, priority 1984, dated 1985).
Read-outs that look alike come from different tables or passages of the source.

Key:
Salmonella typhi = assay: Agar-dilution MIC; assay type: cell-based; conditions: Table 17, 24 hours
[1] = Electrometric titration (pKa); assay type: physicochemical; conditions: electrometric titration in 66% dimethylformamide in water
Eubacterium aerofaciens = assay: Agar-dilution MIC (anaerobes); assay type: cell-based; conditions: Table 14; Eubacterium aerofaciens 1235
Propionibacterium acnes = assay: Agar-dilution MIC (anaerobes); assay type: cell-based; conditions: Table 14; Propionibacterium acnes 79
Text: Antibiotic A41030 factors A, B and C have also been tested and found to be active against a genus of anaerobic bacteria identified as Propionibacterium acnes.

Hemophilus influenzae = assay: Agar-dilution MIC; assay type: cell-based; conditions: Table 17, 24 hours
Clostridium perfringens = assay type: cell-based; conditions: Table 14; Clostridium perfringens 81
[2] = test system: Peptococcus asaccharolyticus; assay: Agar-dilution MIC (anaerobes); assay type: cell-based; conditions: Table 14; Peptococcus asaccharolyticus 1302
S. pneumoniae = assay: Experimental bacterial infection in mice, subcutaneous ED50; assay type: in vivo; conditions: two doses subcutaneously
Protocol: (§1) All of the A41030 factors tested have shown in vivo antimicrobial activity against experimental bacterial infections. When two doses of test compound were administered subcutaneously to mice in illustrative infections, the activity observed is measured as an ED50 value [effective dose in mg./kg. to protect fifty percent of the test animals: See Warren Wick, et al., J. Bacteriol. 81, 233-235 (1961)].

Staph. aureus = assay: as above; assay type: in vivo; conditions: two doses subcutaneously
Protocol: as §1

S. pyogenes = assay: as above; assay type: in vivo; conditions: two doses subcutaneously
Protocol: as §1

Clostridium difficile = assay type: cell-based
Text: The A41030 antibiotic factors A, B, C, D, E, F, and G, are also active against a number of strains of Clostridium difficile, as determined by the agar-dilution method.

Clostridium septicum = assay: Agar-dilution MIC (anaerobes); assay type: cell-based; conditions: Table 14; Clostridium septicum 1128
B. thetaiotaomicron = assay type: cell-based; conditions: Table 14; Bacteroides thetalotaomicron 1438
Text: (§2) The agar-dilution procedure described by the International Collaborative study (ICS) group was used to determine the minimum inhibitory concentrations (MIC's).

Bacteroides corrodens = assay: Agar-dilution MIC (anaerobes); assay type: cell-based; conditions: Table 14; Bacteroides corrodens 1874
[3] = test system: Fusobacterium necrophorum; assay: Agar-dilution MIC (anaerobes); assay type: cell-based; conditions: Table 14; Fusobacterium necrophorum 6054A
Streptococcus pyogenes = assay: Agar-dilution MIC; assay type: cell-based; conditions: Table 17; 24 hours; Streptococcus pyogenes C203
Text: as §2

Streptococcus pneumoniae = assay: Agar-dilution MIC; assay type: cell-based; conditions: Table 17; 24 hours; Streptococcus pneumoniae Park I
Text: as §2

[4] = test system: Staphylococcus epidermidis; assay: Agar-dilution MIC; assay type: cell-based; conditions: Table 17; 24 hours; Staphylococcus epidermidis EPI1
Text: as §2

[5] = test system: Streptococcus sp. (Group D); assay: Agar-dilution MIC; assay type: cell-based; conditions: Table 17, 24 hours
Text: as §2

Bacteroides fragilis = assay: Agar-dilution MIC (anaerobes); assay type: cell-based; conditions: Table 14
Text: as §2

[6] = test system: Peptostreptococcus anaerobius; assay: Agar-dilution MIC (anaerobes); assay type: cell-based; conditions: Table 14; Peptostreptococcus anaerobius 1428
Solubility in solvents = assay type: physicochemical; conditions: solvents as named
Text: The seven antibiotic factors are recovered from the fermentation and are obtained as a mixture, the A41030 complex. It will be recognized that the ratio of the factors in the A41030 complex will vary, depending upon the fermentation conditions used. The individual factors […], and G are separated and isolated as individual compounds, as hereinafter described.

[7] = test system: Bacteroides melaninogenicus; assay: Agar-dilution MIC (anaerobes); assay type: cell-based; conditions: Table 14; Bacteroides melaninogenicus 2736
Staphylococcus aureus = assay: Agar-dilution MIC; assay type: cell-based; conditions: Table 17, 24 hours
Fusobacterium symbiosum = assay: Agar-dilution MIC (anaerobes); assay type: cell-based; conditions: Table 14; Fusobacterium symbiosum 1470
[8] = test system: Peptostreptococcus intermedius; assay: Agar-dilution MIC (anaerobes); assay type: cell-based; conditions: Table 14; Peptostreptococcus intermedius 1264
Peptococcus prevoti = assay: Agar-dilution MIC (anaerobes); assay type: cell-based; conditions: Table 14; Peptococcus prevoti 1281
Bacteroides vulgatis = assay: Agar-dilution MIC (anaerobes); assay type: cell-based; conditions: Table 14; Bacteroides vulgatis 1211

A41030 factor F
MIC (Salmonella typhi; Salmonella typhi 1335): > 128 µg/mL | MIC (Salmonella typhi; Salmonella typhi X514): > 128 µg/mL | pKa, first titratable group [1]: about 5.4 | pKa, second titratable group [1]: ~7.1 | MIC (Eubacterium aerofaciens): 1.0 µg/mL | MIC (Propionibacterium acnes): 1.0 µg/mL | MIC (Hemophilus influenzae; Haemophilus influenzae 76): 32 µg/mL | MIC (Hemophilus influenzae; Haemophilus influenzae C.L.): 32 µg/mL | MIC (Clostridium perfringens): 1.0 µg/mL | MIC [2]: ≤ 0.25 µg/mL | ED50 (S. pneumoniae): > 5.0 mg/kg | ED50 (Staph. aureus): < 0.31 mg/kg | ED50 (S. pyogenes): > 5.0 mg/kg | MIC (Clostridium difficile): 1 µg/mL | MIC (Clostridium difficile; Table 16, C. difficile 78): 1.0 µg/mL | MIC (Clostridium difficile; Table 16, C. difficile 107B): 1.0 µg/mL | MIC (Clostridium difficile; Table 16, C. difficile 111F): 2 µg/mL | MIC (Clostridium difficile; Table 16, C. difficile 1153): 2 µg/mL | MIC (Clostridium difficile; Table 16, C. difficile 2634): 2 µg/mL | MIC (Clostridium difficile; Table 16, C. difficile 3424-5B): 1.0 µg/mL | MIC (Clostridium difficile; Table 16, C. difficile 3816): 1.0 µg/mL | MIC (Clostridium difficile; Table 16, C. difficile 3950): 1.0 µg/mL | MIC (Clostridium difficile; Table 16, C. difficile 6890): 1.0 µg/mL | MIC (Clostridium difficile; Table 16, C. difficile 8484): 1.0 µg/mL | MIC (Clostridium difficile; Table 16, C. difficile A-194): 1.0 µg/mL | MIC (Clostridium difficile; Table 16, C. difficile A-195): 1.0 µg/mL | MIC (Clostridium difficile; Table 16, C. difficile A-196): 2 µg/mL | MIC (Clostridium difficile; Table 16, C. difficile A-279): 1.0 µg/mL | MIC (Clostridium difficile; Table 16, C. difficile A-280): 1.0 µg/mL | MIC (Clostridium difficile; Table 16, C. difficile A-281): 2 µg/mL | MIC (Clostridium difficile; Table 16, C. difficile WAL-2112): 1.0 µg/mL | MIC (Clostridium difficile; Table 16, C. difficile WAL-3657): 1.0 µg/mL | MIC (Clostridium difficile; Table 16, C. difficile WAL-4268): 1.0 µg/mL | MIC (Clostridium septicum): 1.0 µg/mL | MIC (B. thetaiotaomicron): 64 µg/mL | MIC (Bacteroides corrodens): 32 µg/mL | MIC [3]: 1.0 µg/mL | MIC (Streptococcus pyogenes): 2 µg/mL | MIC (Streptococcus pneumoniae): 2 µg/mL | MIC [4]: 0.25 µg/mL | MIC ([5]; Streptococcus sp. Group D 9960): 4 µg/mL | MIC ([5]; Streptococcus sp. Group D X66): 4 µg/mL | MIC (Bacteroides fragilis; Bacteroides fragilis 111): 32 µg/mL | MIC (Bacteroides fragilis; Bacteroides fragilis 1877): 32 µg/mL | MIC (Bacteroides fragilis; Bacteroides fragilis 1936B): 32 µg/mL | MIC [6]: 32 µg/mL | Solubility (Solubility in solvents): soluble in the same solvents as factor A | MIC [7]: 1.0 µg/mL | MIC (Staphylococcus aureus; Staphylococcus aureus 3055): 0.5 µg/mL | MIC (Staphylococcus aureus; Staphylococcus aureus S13E): 1 µg/mL | MIC (Staphylococcus aureus; Staphylococcus aureus V41): 0.5 µg/mL | MIC (Staphylococcus aureus; Staphylococcus aureus X400): 1 µg/mL | MIC (Fusobacterium symbiosum): 1.0 µg/mL | MIC [8]: 1.0 µg/mL | MIC (Peptococcus prevoti): 32 µg/mL | MIC (Bacteroides vulgatis): 32 µg/mL
